From patent US20120165339A1, “CYCLOPROPANE DERIVATIVES” (EISAI R&D MANAGEMENT CO., LTD., priority 2010, published 2012) come the findings set out here.

A value given as a limit tells only on which side of the number the result lay.

One test addresses T1, OX2 (Homo sapiens, UniProt O43614).
T1 sequence (O43614 1-444): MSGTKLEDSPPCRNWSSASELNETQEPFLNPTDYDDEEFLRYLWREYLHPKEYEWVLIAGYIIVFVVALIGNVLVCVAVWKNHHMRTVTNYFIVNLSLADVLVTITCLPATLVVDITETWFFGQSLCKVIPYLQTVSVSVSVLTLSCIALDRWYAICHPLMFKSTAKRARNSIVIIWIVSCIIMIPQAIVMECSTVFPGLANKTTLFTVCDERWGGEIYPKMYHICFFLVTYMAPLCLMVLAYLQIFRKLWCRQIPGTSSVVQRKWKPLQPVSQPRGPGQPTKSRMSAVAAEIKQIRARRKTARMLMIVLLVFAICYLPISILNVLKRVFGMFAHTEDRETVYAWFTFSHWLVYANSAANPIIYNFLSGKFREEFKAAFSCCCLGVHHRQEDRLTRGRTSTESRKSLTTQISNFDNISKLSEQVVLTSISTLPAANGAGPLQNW
The test is described as follows: Orexin-receptor binding ability, [125I]-OX-A, CHO cell membranes expressing OX2. Details: expressed in transfected cells; host or cells: CHO cells (membrane preparation). As to conditions: membranes of recombinant CHO cells, 0.2 nM [125I]-OX-A tracer; read-out: OX2 (IC50). On the procedure:
(§1) The assay was carried out using a 96-well Wheat Germ Agglutinin Flash Plate (PerkinElmer). The volume in a single assay well was 100 ul, and the composition of the reaction solution was as follows:
(§2) 25 mM HEPES (pH 7.5), 1 mM CaCl2, 4.5 mM MgCl2, 0.5% BSA (bovine serum albumin), 0.1% sodium azide, 0.05% Tween-20, and 0.2% DMSO.
Cell membranes were prepared from recombinant CHO cells that expressed OX2 or OX1. The cell membranes were used in an amount of 5 μg protein/assay. Test compound in various concentrations, and 0.2 nM [^125I]-OX-A as tracer were added to the cell membranes, and then allowed to react at room temperature for 30 minutes. After completion of the reaction, the reaction solution as a whole was discarded, and the wells were then washed once with 200 ul of wash buffer (25 mM HEPES (pH 7.5), 1 mM CaCl2, 5 mM MgCl2, 0.5% BSA, 0.1% sodium azide, 0.05% Tween-20, and 525 mM sodium chloride). Finally, the radioactivity of each well was measured using a scintillation counter (TopCount, PerkinElmer). The obtained results are shown in terms of IC50 values (nM) in the following table.

For the next test, the target named is T2, OX1 (Homo sapiens, UniProt O43613).
T2 sequence (O43613 1-425): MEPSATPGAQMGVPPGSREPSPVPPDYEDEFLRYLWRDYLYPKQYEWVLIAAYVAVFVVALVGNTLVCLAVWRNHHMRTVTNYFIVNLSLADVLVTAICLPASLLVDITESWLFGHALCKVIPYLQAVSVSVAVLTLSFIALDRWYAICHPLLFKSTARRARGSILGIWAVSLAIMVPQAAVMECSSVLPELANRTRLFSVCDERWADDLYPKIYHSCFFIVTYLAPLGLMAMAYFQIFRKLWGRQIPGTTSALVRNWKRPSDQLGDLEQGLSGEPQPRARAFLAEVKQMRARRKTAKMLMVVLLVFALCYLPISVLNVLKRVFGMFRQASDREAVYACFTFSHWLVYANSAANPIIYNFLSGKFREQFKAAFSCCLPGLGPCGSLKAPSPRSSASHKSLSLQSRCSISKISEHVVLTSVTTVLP
Nature of the test: Orexin-receptor binding ability, [125I]-OX-A, CHO cell membranes expressing OX1. As to conditions: membranes of recombinant CHO cells, 0.2 nM [125I]-OX-A tracer; read-out: OX1 (IC50). Details: expressed in transfected cells; host or cells: CHO cells (membrane preparation). On the procedure:
as §1, §2
Cell membranes were prepared from recombinant CHO cells that expressed OX2 or OX1. The cell membranes were used in an amount of 5 μg protein/assay. […] Finally, the radioactivity of each well was measured using a scintillation counter (TopCount, PerkinElmer). The obtained results are shown in terms of IC50 values (nM) in the following table.

Regarding `Cc1cnc(OC[C@@]2(c3ccccc3)C[C@H]2C(=O)Nc2ccc(F)cn2)c(C)n1` [Example 65], the IC50 on OX2 was found to be 26 nM; at OX1, 57 nM.
For `Cc1cnc(OC[C@@]2(c3ccccc3)C[C@H]2C(=O)Nc2ccc(C#N)cn2)c(C)n1` [Example 66], the values for the IC50 at OX2 and at OX1 were 21 nM and 74 nM, respectively.
For `Cc1cnc(OC[C@@]2(c3ccccc3)C[C@H]2C(=O)Nc2ccc(Cl)cn2)c(C)n1` [Example 67], the figures for the half-inhibitory concentration (IC50) on OX2 and on OX1 were 7 nM and 33 nM, respectively.
As for `CCn1cc(OC[C@@]2(c3ccccc3)C[C@H]2C(=O)Nc2ccccn2)c(C)n1` [Example 69], the IC50 turned out to be 69 nM at OX2 and 2130 nM at OX1.
Take `CCn1cc(OC[C@@]2(c3ccccc3)C[C@H]2C(=O)Nc2ccc(F)cc2)c(C)n1` [Example 71]: the IC50 turned out to be 45 nM on OX2 and 1310 nM on OX1.
`Cc1nn(C)cc1OCC1(c2ccccc2)CC1C(=O)Nc1ccc(Cl)cn1` (stereo not shown) [Example 83]: the IC50 on OX2 is 15 nM; on OX1 it was 682 nM.
Regarding `CCn1cc(OC[C@@]2(c3cccc(F)c3)C[C@H]2C(=O)Nc2ccccn2)c(C)n1` [Example 85], the IC50 stood at 8 nM on OX2 and 59 nM at OX1.
The corresponding values for `CCn1cc(OC[C@@]2(c3cccc(F)c3)C[C@H]2C(=O)Nc2ccc(F)cn2)c(C)n1` [Example 86] are 5 nM and 15 nM.
In the case of `CCn1cc(OC[C@@]2(c3cccc(F)c3)C[C@H]2C(=O)Nc2ccc(F)cn2)c(C)n1` [Example 87], the IC50 stood at 21 nM on OX2 and 136 nM on OX1.
For `CCn1cc(OC[C@@]2(c3cccc(F)c3)C[C@H]2C(=O)Nc2ccc(F)cc2)c(C)n1` [Example 88] the same measures were 12 nM and 84 nM.
With `CCn1cc(OC[C@@]2(c3cccc(F)c3)C[C@H]2C(=O)Nc2cc(OC)c(F)cn2)c(C)n1` [Example 89], the IC50 at OX2 is 93 nM; at OX1, greater than 200 nM.
For `CCn1cc(OC[C@@]2(c3cccc(F)c3)C[C@H]2C(=O)Nc2ccc(C#N)cn2)c(C)n1` [Example 90] the same measures were 8 nM and 13 nM.
Regarding `CCn1cc(OC[C@@]2(c3cccc(F)c3)C[C@H]2C(=O)Nc2ccnc(F)c2)c(C)n1` [Example 91], the half-maximal inhibitory concentration (IC50) was 93 nM on OX2 and greater than 200 nM on OX1.
The corresponding values for `COc1cncc(NC(=O)[C@@H]2C[C@@]2(COc2cc(=O)n(C)nc2C)c2ccccc2)c1` [Example 92, (1R,2S)-2-[(1,3-dimethyl-6-oxo-1,6-dihydropyridazin-4-yl)oxymethyl]-N-(5-methoxypyridin-3-yl)-2-phenylcyclopropanecarboxamide] are 5 nM and 1360 nM.
Regarding `Cc1nn(C)c(=O)cc1OC[C@@]1(c2ccccc2)C[C@H]1C(=O)Nc1ccc(F)cc1` [Example 93, (1R,2S)-2-[(1,3-dimethyl-6-oxo-1,6-dihydropyridazin-4-yl)oxymethyl]-N-(4-fluorophenyl)-2-phenylcyclopropanecarboxamide], the values for the IC50 at OX2 and at OX1 were 27 nM and 410 nM, respectively.
The corresponding values for `Cc1cc(NC(=O)[C@@H]2C[C@@]2(COc2cc(=O)n(C)nc2C)c2ccccc2)ncc1F` [Example 94] are 39 nM and 771 nM.
For `Cc1nn(C)c(=O)cc1OC[C@@]1(c2ccccc2)C[C@H]1C(=O)Nc1ccc(Cl)cn1` [Example 95] the same measures were 59 nM and 1600 nM.
As for `CCn1nc(C)c(OC[C@@]2(c3ccccc3)C[C@H]2C(=O)Nc2ccc(F)cc2)cc1=O` [Example 98], the IC50 worked out at 55 nM on OX2 and 132 nM at OX1.
Turning to `CCn1cc(CCC2(c3ccccc3)CC2C(=O)Nc2ccc(Cl)cn2)cn1` (stereo not shown) [Example 102], the IC50 on OX2 came out at 22 nM; at OX1, 364 nM.
For `Cc1cc(NC(=O)[C@@H]2C[C@@]2(CCn2nc(C(F)F)nc2C)c2ccccc2)ncc1F` [Example 108, (1R,2S)-2-[2-(3-difluoromethyl-5-methyl-1H-1,2,4-triazol-1-yl)ethyl]-N-(5-fluoro-4-methylpyridin-2-yl)-2-phenylcyclopropanecarboxamide] the same measures were 6 nM and 101 nM.
For `Cc1nc(C(F)F)nn1CC[C@@]1(c2ccccc2)C[C@H]1C(=O)Nc1ccc(F)cn1` [Example 109] the same measures were 71 nM and 1330 nM.
The corresponding values for `Cc1nc(C(F)F)nn1CC[C@@]1(c2ccccc2)C[C@H]1C(=O)Nc1ccc(Cl)cn1` [Example 110] are 36 nM and 196 nM.
Take `Cc1nc(C(F)F)nn1CC[C@@]1(c2ccccc2)C[C@H]1C(=O)Nc1ccc(F)cc1` [Example 111]: the IC50 at OX2 was 41 nM; on OX1, 655 nM.
Regarding `Cc1nc(C(F)F)nn1CC[C@@]1(c2ccccc2)C[C@H]1C(=O)Nc1ccc(C#N)cn1` [Example 112], the IC50 at OX2 was found to be 33 nM.
Turning to `COc1nc(C)n(CCC2(c3ccccc3)CC2C(=O)Nc2ccc(Cl)cn2)n1` (stereo not shown) [Example 116], the IC50 was 89 nM on OX2 and greater than 2000 nM on OX1.
With `COc1cn(CCC2(c3ccccc3)CC2C(=O)Nc2ccc(Cl)cn2)ccc1=O` (stereo not shown) [Example 117], the IC50 on OX2 came out at 46 nM; on OX1, 456 nM.
The corresponding values for `Cc1csc(NC(=O)[C@@H]2C[C@@]2(CCn2nc(C(F)(F)F)nc2C)c2ccccc2)n1` [Example 124] are 55 nM and 2250 nM.
Consider `Cc1nc(C2CC2)nn1CC[C@@]1(c2ccccc2)C[C@H]1C(=O)Nc1ccc(C#N)cn1` [Example 127], for which the IC50 stood at 23 nM on OX2 and 266 nM at OX1.
